Measurements published in patent EP1097716A1, “Dietary anti-adiposity food supplements and drugs based on thyrotropin-releasing hormone (TRH)” (Chronolife Inc., priority 1999, dated 2001).

How the values were obtained:
[1] = Toxicity of increasing doses in the drinking water
old female mice = assay: Chronic oral administration in drinking water, aging-related adiposity, body weight (Table 8); assay type: in vivo, BALB/cJ X C57BL/6 F1 female mice; details: n=15, Mean ± SD
Description: With other words, progressive alteration of pineal-hypothalamic-pituitary-peripheral endocrine glands function in the course of aging leads to the most typical appearance of decreased tolerance to glucose (hyperglycemia), increased levels of lipids, in particular triglycerides and cholesterol (hyperlipidemia) and progressive accumulation of fat, which is not obesity but the most common expression of hormonal derangements. TRH taken chronically will maintain normal body weight in normal aging mice, while the normal controls put on fat and weight.
The results reported in Table 8 clearly support the presumption that TRH is also capable of preventing onset of aging-related adiposity in humans.

[2] = aging mice (18 month-old mice) compared with young, e.g. three month-old mice; cited from earlier work
[3] = 20-day intraperitoneal treatment, blood levels of T3, T4 and TSH by radioimmunoassay in serum (Table 7); assay type: in vivo, C57BL/6 male mice; details: for T3 / T4 / TSH (µU/mL): serum, Mean ± SD
Protocol: This is shown by Table 7 hereafter which report the results of assays which were ran under the following conditions.
C57BL/6 male mice aged 9 months, were injected intraperitonealy for 20 days at 6 p.m. (evening) or at 8 a.m. (morning) with 0.5 ml volumes containing either 10 µg or 100 µg of TRH in bidistilled water. Controls were injected with the same amount of diluent. The mice were bled from the retroorbital venus plexus under rapid acute ether anaesthesia at 10 a.m. T3, T4 and TSH were measured by radioimmunoassay in the serum of individual mice. TABLE 7: […]

[4] = system: anterior hypothalamic area (AHA)-lesioned obese mice; assay: 48-day intraperitoneal treatment of AHA-lesioned obese mice, body weight (Table 5); assay type: in vivo, C57BL/6 female mice; details: N=4, Mean ± SD
Protocol: C57BL/6 female mice aged 8 months (AHA-lesioned at 2 months of age to induce obesity), were injected intraperitoneally for 48 days at 6 pm (evening) with 0.5 ml volume containing 10 µg TRH-tartrate in bidistilled water. Controls were injected with the same amount of diluent.

[5] = 2 months treatment, blood levels of cholesterol and triglycerides in old mice (Table 9); assay type: in vivo, BALB/cJ female mice; details: 2 months treatment started in 20-month-old female mice, n = 10, dosages as for Table 7
Description: Evidence that the lipid related compounds whose proportions in the blood circulation of old mice have a cause different from those observed in young mice treated with TRH seems further indicated by the fact that the weight of 16 month-old female mice, thus older mice which tend to accumulate age-related adiposity, can also be controlled and even reduced by the adsorption of TRH (see table 8). Indeed the contents in lipid-related compounds in the blood circulation of older mice (20 month-old mice) treated with TRH remain substantially unaltered, as evidenced by the results shown in Table 9 hereafter. The dosages of TRH were the same as in the assay reported in relation to Table 7.

[6] = system: obese, anterior hypothalamic area (AHA)-lesioned mice; assay: 20-day intraperitoneal treatment of obese AHA-lesioned mice, body weight (Table 3); assay type: in vivo, C57BL/6 male mice; details: N=6, Mean ± SD; for Body weight (g): p<0.05 vs before treatment
Protocol: C57BL/6 male mice aged 7 months (AHA-lesioned at 2 months of age to induce obesity), were injected intraperitoneally for 20 days at 6 pm (evening) with 0.5 ml volume containing 10 µg TRH-tartrate in bidistilled water. Controls were injected with the same amount of diluent.

[7] = TRH evening (6 p.m.) 10 µg i.p. for 20 days
[8] = TRH evening (6 p.m.) 100 µg i.p. for 20 days
[9] = TRH morning (8 a.m.) 10 µg i.p. for 20 days
[10] = TRH morning (8 a.m.) 100 µg i.p. for 20 days

Compound: COc1ccc2[nH]cc(CCNC(C)=O)c2c1 [melatonin]
- toxicity [1]: not toxic

Compound: (pyro)Glu-His-Pro NH2 [TRH]
- Body weight (g) before treatment (old female mice; 16 month-old female mice): 33.1 ± 3.2 (15) g
- Body weight (g) after treatment (old female mice; TRH-tartrate in the drinking water (100µg/ml) for 5 months, started at 16 months of age): 33.8 ± 4.0 (15) g
- levels of cholesterol, triglycerids and phospholipids [2]: brought back to values currently observed in young mice
- T3 [3, 7]: 0.82 ± 0.08 nmol/L
- T4 [3, 7]: 65.7 ± 4.2 nmol/L
- TSH (µU/mL) [3, 7]: 0.005 ± 0.004 µU/mL
- T3 [3, 8]: 0.91 ± 0.02 nmol/L
- T4 [3, 8]: 68.7 ± 13.1 nmol/L
- TSH (µU/mL) [3, 8]: 0.004 ± 0.005 µU/mL
- T3 [3, 9]: 1.03 ± 0.07 nmol/L
- T4 [3, 9]: 82.0 ± 1.9 nmol/L
- TSH (µU/mL) [3, 9]: 0.009 ± 0.006 µU/mL
- T3 [3, 10]: 0.84 ± 0.02 nmol/L
- T4 [3, 10]: 74.9 ± 13.3 nmol/L
- TSH (µU/mL) [3, 10]: 0.007 ± 0.005 µU/mL
- acute toxicity ([3]; injected at huge dosages (up to 100 µg i.p. for 20 days)): lack of acute toxicity
- Body weight ([4]; After 27 days of treatment, 10 µg TRH-tartrate i.p. daily at 6 pm): 39.2 ± 7.2 g
- Body weight (g) ([4]; After 48 days of treatment, 10 µg TRH-tartrate i.p. daily at 6 pm, p<0.05 vs before treatment): 32.6 ± 4.4^∗ g
- Body weight ([4]; Before treatment, AHA-lesioned female mice aged 8 months): 42.2 ± 6.4 g
- CHOLESTEROL [5]: 1.65 ± 0.29 mmol/L
- TRIGLYCERIDES [5]: 1.19 ± 0.46 mmol/L
- Body weight ([6]; After 10 days of treatment, 10 µg TRH-tartrate i.p. daily at 6 pm): 33.7 ± 4.2 g
- Body weight (g) ([6]; After 20 days of treatment, 10 µg TRH-tartrate i.p. daily at 6 pm): 32.0 ± 3.6^∗ g
- Body weight (g) ([6]; After withdrawal period of 5 days following 20-day treatment): 31.1 ± 3.4^∗ g
- Body weight ([6]; After withdrawal period of 60 days following 20-day treatment): 38.3 ± 5.9 g
- Body weight ([6]; Before treatment, AHA-lesioned male mice aged 7 months): 39.0 ± 6.2 g
